Experimental data reported in ChEMBL document CHEMBL1201862, “PubChem BioAssay data set” (2004).
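Briefly, cells in 96-well plates were exposed to five compound concentrations for 48 h, and endpoints were estimated by linear interpolation. The concentration for 50% growth inhibition is given as GI50.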 Activity calls are given as the source filed them. No stated cut-off is given here; in the data, active = GI50 up to about 1.1 µM and inactive = higher.

Experiments:
Test in all cases: growth of human tumour cells (NCI), 48 h
UACC-257 = system: UACC-257
TK-10 = system: TK-10
HT-29 = system: HT-29
EKVX = system: EKVX
BT-549 = system: BT-549
OVCAR-4 = system: OVCAR-4
NCI-H522 = system: NCI-H522
SW-620 = system: SW-620
T47D = system: T47D
MDA-MB-435 = system: MDA-MB-435
OVCAR-5 = system: OVCAR-5
RPMI-8226 = system: RPMI-8226
HCC 2998 = system: HCC 2998
K562 = system: K562
Hs-578T = system: Hs-578T
SK-MEL-2 = system: SK-MEL-2
KM12 = system: KM12
MOLT-4 = system: MOLT-4
SF-539 = system: SF-539
HL-60 = system: HL-60

| SMILES | GI50 (UACC-257) | GI50 (TK-10) | GI50 (HT-29) | GI50 (EKVX) | GI50 (BT-549) | GI50 (OVCAR-4) | GI50 (NCI-H522) | GI50 (SW-620) | GI50 (T47D) | GI50 (MDA-MB-435) | GI50 (OVCAR-5) | GI50 (RPMI-8226) | GI50 (HCC 2998) | GI50 (K562) | GI50 (Hs-578T) | GI50 (SK-MEL-2) | GI50 (KM12) | GI50 (MOLT-4) | GI50 (SF-539) | GI50 (HL-60) |
| --- | --- | --- | --- | --- | --- | --- | --- | --- | --- | --- | --- | --- | --- | --- | --- | --- | --- | --- | --- | --- |
| COC1(OC)C[C@H](C)[C@@]23O[C@]24c2cc(O)c5c(c2N[C@H]3C#C/C=C\C#C[C@]14O)C(=O)c1ccccc1C5=O | 0.005 µM (active) | 0.0245 µM (active) | 0.00655 µM (active) | 0.0286 µM (active) | 0.00519 µM (active) | 0.0964 µM (active) | 0.00635 µM (active) | 0.005 µM (active) | 0.005 µM (active) | 0.00703 µM (active) | 0.00692 µM (active) | 0.005 µM (active) | 0.00805 µM (active) | 0.005 µM (active) | 0.0705 µM (active) |  |  |  |  |  |
| C[C@@]12C=CC3C/C(=N\C(N)=S)C=C(CCCC4OCCO4)[C@]3(CC1)C2 (some centres not stated) | 18.8 µM (inactive) | 20.6 µM (inactive) | 11.2 µM (inactive) | 10.3 µM (inactive) | 16.9 µM (inactive) | 18.4 µM (inactive) | 6.87 µM (inactive) | 20.8 µM (inactive) | 22.1 µM (inactive) | 16.9 µM (inactive) | 15.7 µM (inactive) | 16.2 µM (inactive) | 15.1 µM (inactive) | 17.9 µM (inactive) | 28.5 µM (inactive) | 16.9 µM (inactive) | 23.6 µM (inactive) | 9.44 µM (inactive) | 17.9 µM (inactive) |  |
| Nc1nc(N)c2nc(CNc3ccc(C(=O)NC(CCCCNC(=O)c4ccccc4C(=O)O)C(=O)O)cc3)cnc2n1 (configuration not stated) |  | 0.173 µM (active) | 0.01 µM (active) | > 34.4 µM (inactive) | > 100 µM (inactive) | > 100 µM (inactive) | 5.38 µM (inactive) | 0.01 µM (active) | 0.01 µM (active) | 0.01 µM (active) | > 85.3 µM (inactive) | 0.01 µM (active) | 0.01 µM (active) | 0.01 µM (active) | > 100 µM (inactive) | 68.4 µM (inactive) | 0.01 µM (active) | 0.01 µM (active) | < 0.0133 µM (active) |  |
| Cc1ccc(/N=N/C(=N/c2ccccc2)c2ccc(N(CCC#N)CCC#N)cc2)cc1 | 19.3 µM (inactive) | 27.2 µM (inactive) | 30.9 µM (inactive) | 30.6 µM (inactive) | 13.2 µM (inactive) | 42.6 µM (inactive) | 17.4 µM (inactive) | 45.6 µM (inactive) | 23.7 µM (inactive) | 38 µM (inactive) | 54.2 µM (inactive) | 39 µM (inactive) | 19.4 µM (inactive) | 47.3 µM (inactive) | 37 µM (inactive) | 19.7 µM (inactive) | 24.3 µM (inactive) | 43.7 µM (inactive) | 28.8 µM (inactive) |  |
| O=NC1c2cccc3cccc(c23)C1N=O (configuration not stated) | 12.9 µM (inactive) | 10.2 µM (inactive) | 10.9 µM (inactive) | 2.58 µM (inactive) | 4.21 µM (inactive) | 1.59 µM (inactive) | 1.93 µM (inactive) | 2.45 µM (inactive) | 17 µM (inactive) | 4.78 µM (inactive) | 2.83 µM (inactive) | 8.17 µM (inactive) |  | 2.65 µM (inactive) | 15.9 µM (inactive) |  | 3.89 µM (inactive) | 0.612 µM (active) | 12.8 µM (inactive) | 2.5 µM (inactive) |
| COc1ccc(N(CC(=O)O)N=O)cc1 | > 100 µM (inactive) | > 100 µM (inactive) | > 100 µM (inactive) | > 100 µM (inactive) | > 100 µM (inactive) | > 100 µM (inactive) | > 100 µM (inactive) | > 100 µM (inactive) | > 100 µM (inactive) | > 100 µM (inactive) | > 100 µM (inactive) | > 100 µM (inactive) |  | > 100 µM (inactive) | > 100 µM (inactive) | > 100 µM (inactive) | > 100 µM (inactive) | > 100 µM (inactive) | > 100 µM (inactive) | > 100 µM (inactive) |
| CC1=CC(=O)N(n2c(Cc3ccccc3)n[nH]c2=O)C1=O | > 100 µM (inactive) | > 100 µM (inactive) | > 100 µM (inactive) | > 100 µM (inactive) | > 100 µM (inactive) | > 100 µM (inactive) | > 100 µM (inactive) | 83.9 µM (inactive) | 98.4 µM (inactive) | > 100 µM (inactive) | > 100 µM (inactive) | 52 µM (inactive) | > 100 µM (inactive) | 71.9 µM (inactive) | > 100 µM (inactive) | > 100 µM (inactive) | > 100 µM (inactive) | 33.9 µM (inactive) | > 100 µM (inactive) |  |
| COc1ccc2sc(-n3nc4ccccc4c3Nc3nc4ccc(OC)cc4s3)nc2c1 | 4.1 µM (inactive) | 2.62 µM (inactive) | 3.59 µM (inactive) | 3.52 µM (inactive) | 2.13 µM (inactive) | 1.86 µM (inactive) | 2.52 µM (inactive) | 7.5 µM (inactive) | 1 µM (active) | 3.24 µM (inactive) | 2.88 µM (inactive) | 0.887 µM (active) | 1.43 µM (inactive) | 1.59 µM (inactive) | 1.46 µM (inactive) | 15 µM (inactive) | 3.99 µM (inactive) |  | 0.92 µM (active) |  |
| O=[N+]([O-])c1ccc(/C=N/n2c(CO)nc3ccccc32)o1 | 2.44 µM (inactive) | 6.55 µM (inactive) | 2.8 µM (inactive) | 11.3 µM (inactive) | 13.6 µM (inactive) | 7.1 µM (inactive) | 2.28 µM (inactive) | 5.71 µM (inactive) | 20.5 µM (inactive) | 3.4 µM (inactive) | 11.9 µM (inactive) | 3.43 µM (inactive) |  | 4.67 µM (inactive) | 12.7 µM (inactive) | 4.67 µM (inactive) | 3.11 µM (inactive) | 1.1 µM (active) | 17.9 µM (inactive) | 2.3 µM (inactive) |
| Clc1ccccc1NN(Cc1ccccn1)c1ccccc1Cl |  |  | 14.6 µM (inactive) | 23 µM (inactive) | 25.1 µM (inactive) | 16.2 µM (inactive) | 17.6 µM (inactive) | 17.7 µM (inactive) | 27.4 µM (inactive) | 16.6 µM (inactive) | 20.9 µM (inactive) | 16.1 µM (inactive) |  | 17.3 µM (inactive) | 26.2 µM (inactive) | 17.1 µM (inactive) | 16.9 µM (inactive) | 17.3 µM (inactive) | 18.7 µM (inactive) | 18.5 µM (inactive) |
| O=C1CC(c2ccc(O)cc2)C2(O1)C(=O)OC(C(O)CO)C2O (configuration not stated) | > 100 µM (inactive) | > 100 µM (inactive) | > 100 µM (inactive) | > 100 µM (inactive) | > 100 µM (inactive) |  |  | > 100 µM (inactive) | > 100 µM (inactive) | > 100 µM (inactive) | > 100 µM (inactive) | > 100 µM (inactive) |  | > 100 µM (inactive) | > 100 µM (inactive) | > 100 µM (inactive) | > 100 µM (inactive) | > 100 µM (inactive) | > 100 µM (inactive) | > 100 µM (inactive) |
| CC(C)CCC[C@@H](C)[C@H]1CC[C@H]2[C@@H]3CC=C4C[C@@H](OC(=O)c5cccc6c(=O)c7ccccc7[nH]c56)CC[C@]4(C)[C@H]3CC[C@]12C | > 75 µM (inactive) | > 75 µM (inactive) | > 75 µM (inactive) | > 75 µM (inactive) | > 75 µM (inactive) | 3.5 µM (inactive) | > 75 µM (inactive) | > 75 µM (inactive) | > 75 µM (inactive) | > 75 µM (inactive) | > 75 µM (inactive) | > 75 µM (inactive) | > 75 µM (inactive) | 43.7 µM (inactive) | > 75 µM (inactive) | > 75 µM (inactive) | > 75 µM (inactive) | > 75 µM (inactive) | > 75 µM (inactive) |  |
| O=C1C(c2c(O)[nH]c3ccc(I)cc23)=Nc2ccccc21 | 17.9 µM (inactive) | 4.54 µM (inactive) | 7.1 µM (inactive) | 4.67 µM (inactive) | 7.53 µM (inactive) | 4.06 µM (inactive) | 4.2 µM (inactive) | 13.2 µM (inactive) | 3.51 µM (inactive) | 12.1 µM (inactive) | 11.8 µM (inactive) | 9.51 µM (inactive) |  | 9.66 µM (inactive) | 6.78 µM (inactive) | 3.78 µM (inactive) | 5.24 µM (inactive) | 49.2 µM (inactive) | 5.27 µM (inactive) | > 100 µM (inactive) |
| CC[n+]1[b-](C(C)(C)C)n(/N=C/C(C)(C)C)[b-](C(C)(C)C)[n+]1CC | > 100 µM (inactive) | > 100 µM (inactive) | > 100 µM (inactive) | > 100 µM (inactive) | > 100 µM (inactive) | > 100 µM (inactive) | > 100 µM (inactive) | > 100 µM (inactive) | > 100 µM (inactive) | > 100 µM (inactive) | > 100 µM (inactive) |  | > 100 µM (inactive) | 67.1 µM (inactive) | > 100 µM (inactive) | 70.3 µM (inactive) | > 100 µM (inactive) | > 100 µM (inactive) | > 100 µM (inactive) |  |
| COc1cc(/C=C2/C[C@H]3[C@@H]4CC=C5C[C@@H](OC(C)=O)CC[C@]5(C)[C@H]4CC[C@]3(C)NC2=O)cc(OC)c1OC | 26.5 µM (inactive) | 26.5 µM (inactive) | 38.7 µM (inactive) | 26.6 µM (inactive) | 22.5 µM (inactive) | 17.4 µM (inactive) | 24.6 µM (inactive) | 54 µM (inactive) | 22 µM (inactive) | 36.3 µM (inactive) | 27 µM (inactive) |  | 43.4 µM (inactive) | 45.3 µM (inactive) | 24.2 µM (inactive) | 18.7 µM (inactive) | 47.4 µM (inactive) | 16.9 µM (inactive) | 13.1 µM (inactive) |  |
